Assay results: ChEMBL document CHEMBL1154543, “Facile synthesis and biological evaluation of a cell-permeable probe to detect redox-regulated proteins” (Bioorg Med Chem Lett, 2009)
The source made the active and inactive calls. The calls are words filed in the database; no cut-off is given here.

How the values were obtained:
[1] = molecular target: Glyceraldehyde-3-phosphate dehydrogenase (Homo sapiens) (UniProt P04406); assay: Binding affinity to sulfenic acid modified GAPDH in human HeLa cells at 10 mM by Western blot; type: cell-based
[2] = tested on: HeLa; assay: Binding affinity to sulfenic acid modified actin in human HeLa cells at 10 mM by Western blot; type: cell-based
[3] = Binding affinity to Cdc25A C384S mutant assessed as protein labeling based detection of sulfenic acid modification at 20 uM in presence of 5 mM DTT by Western blot
[4] = Binding affinity to Cdc25A C384S mutant assessed as protein labeling based detection of sulfenic acid modification at 10 mM by Western blot
[5] = molecular target: Glyceraldehyde-3-phosphate dehydrogenase (Homo sapiens) (UniProt P04406); assay: Binding affinity to sulfenic acid modified GAPDH by Western blot
[6] = molecular target: Glyceraldehyde-3-phosphate dehydrogenase (Homo sapiens) (UniProt P04406); assay: Inhibition of DAz1-biotin binding to sulfenic acid modified GAPDH at 250 uM by Western blot
[7] = molecular target: T1, Peroxiredoxin-1 (Homo sapiens) (UniProt Q06830); assay: Binding affinity to sulfenic acid modified peroxiredoxin human HeLa cells at 10 mM by Western blot; type: cell-based
T1 sequence (whole entry): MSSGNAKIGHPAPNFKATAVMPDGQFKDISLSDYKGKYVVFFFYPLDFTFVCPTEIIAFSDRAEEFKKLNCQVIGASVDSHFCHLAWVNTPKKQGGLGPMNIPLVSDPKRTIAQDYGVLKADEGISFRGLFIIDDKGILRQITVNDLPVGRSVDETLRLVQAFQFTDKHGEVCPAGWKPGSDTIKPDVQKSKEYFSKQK

[8] = tested on: HeLa; assay: Toxicity against human HeLa cells after 2 hrs by trypan blue exclusion method; type: cell-based

Sequence of Glyceraldehyde-3-phosphate dehydrogenase (Homo sapiens) (P04406 2-335 limits assumed): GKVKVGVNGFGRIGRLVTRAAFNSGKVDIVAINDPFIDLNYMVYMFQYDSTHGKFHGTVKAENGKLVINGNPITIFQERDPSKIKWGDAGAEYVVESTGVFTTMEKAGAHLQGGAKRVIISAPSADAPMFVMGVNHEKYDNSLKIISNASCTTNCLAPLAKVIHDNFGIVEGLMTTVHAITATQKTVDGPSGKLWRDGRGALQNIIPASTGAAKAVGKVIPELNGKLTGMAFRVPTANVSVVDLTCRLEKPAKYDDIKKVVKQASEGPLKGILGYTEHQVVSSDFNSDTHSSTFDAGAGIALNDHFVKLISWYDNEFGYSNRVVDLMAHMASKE

Activity [1]: Active
Activity [3]: inactive
Activity [4]: Active
Activity [5]: Active
inhibition [6]: 90%
Activity [7]: Active
Compound: [N-]=[N+]=NCCCNC(=O)C1CC(=O)CC(=O)C1
Activity [2]: Active
Activity [8]: Non-toxic
